Assay results as given in ChEMBL document CHEMBL1201862, “PubChem BioAssay data set” (2004).
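Cultured in 96-well plates, cells were exposed to test compound for 48 hours across five concentrations. Abbreviation: GI50, concentration required for 50% inhibition of growth.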 Activity calls are given as the source filed them. Rule as the data show it: active = GI50 up to about 1.1 µM and inactive = higher.

Key:
Assay in all cases: DTP human tumour cell line panel, 48 h
DU-145 = system: DU-145
EKVX = system: EKVX
HT-29 = system: HT-29
K562 = system: K562
KM12 = system: KM12
MDA-MB-435 = system: MDA-MB-435
MOLT-4 = system: MOLT-4
NCI-H23 = system: NCI-H23
NCI-H460 = system: NCI-H460
OVCAR-3 = system: OVCAR-3
OVCAR-4 = system: OVCAR-4
OVCAR-5 = system: OVCAR-5
PC-3 = system: PC-3
SF-295 = system: SF-295
SF-539 = system: SF-539
SNB-19 = system: SNB-19
U-251 = system: U-251
UACC-62 = system: UACC-62
UO-31 = system: UO-31

| SMILES | GI50 (DU-145) | GI50 (EKVX) | GI50 (HT-29) | GI50 (K562) | GI50 (KM12) | GI50 (MDA-MB-435) | GI50 (MOLT-4) | GI50 (NCI-H23) | GI50 (NCI-H460) | GI50 (OVCAR-3) | GI50 (OVCAR-4) | GI50 (OVCAR-5) | GI50 (PC-3) | GI50 (SF-295) | GI50 (SF-539) | GI50 (SNB-19) | GI50 (U-251) | GI50 (UACC-62) | GI50 (UO-31) |
| --- | --- | --- | --- | --- | --- | --- | --- | --- | --- | --- | --- | --- | --- | --- | --- | --- | --- | --- | --- |
| CC(C)NC(=O)OCc1c(COC(=O)NC(C)C)c(-c2cc[n+](COC(=O)C3CC3)cc2)n2c1CCC2 | > 100 µM (inactive) | > 100 µM (inactive) | > 100 µM (inactive) | > 100 µM (inactive) | > 100 µM (inactive) | > 100 µM (inactive) | > 100 µM (inactive) | > 100 µM (inactive) | > 100 µM (inactive) | > 100 µM (inactive) | > 100 µM (inactive) | > 100 µM (inactive) | > 100 µM (inactive) | > 100 µM (inactive) | 42.2 µM (inactive) | > 100 µM (inactive) | > 100 µM (inactive) | > 100 µM (inactive) | > 100 µM (inactive) |
| Brc1cccc(Nc2nc(-c3cccs3)nc3ccc(Br)cc23)c1 | 36.1 µM (inactive) | 15 µM (inactive) | 17.1 µM (inactive) | 38.2 µM (inactive) | 18 µM (inactive) | 16.6 µM (inactive) | 26.6 µM (inactive) | 36.9 µM (inactive) | 21.7 µM (inactive) | 16.1 µM (inactive) | 27.8 µM (inactive) | 25.2 µM (inactive) | 31.9 µM (inactive) | 19.9 µM (inactive) | 31.8 µM (inactive) | 31.1 µM (inactive) | 31.5 µM (inactive) | 17.8 µM (inactive) | 47 µM (inactive) |
| Cc1cccc(-c2cc(O)c3cc(C)cnc3n2)c1 | 0.279 µM (active) | 0.705 µM (active) | 0.15 µM (active) | 0.0411 µM (active) | 0.0869 µM (active) | 0.0185 µM (active) | 0.244 µM (active) | 0.344 µM (active) | 0.311 µM (active) | 0.143 µM (active) | 1.95 µM (inactive) | 0.414 µM (active) | 0.189 µM (active) | 0.148 µM (active) | 0.213 µM (active) | 0.366 µM (active) | 0.147 µM (active) | 0.331 µM (active) | 0.745 µM (active) |
| COc1cc(S(=O)(=O)Nc2ccc(-c3csc(N4C(=O)CSC4c4ccccc4)n3)cc2)ccc1Cl (configuration not stated) | > 100 µM (inactive) | 20.6 µM (inactive) | 54.2 µM (inactive) | 39.7 µM (inactive) | 30.5 µM (inactive) | 43.1 µM (inactive) | 25.6 µM (inactive) | > 100 µM (inactive) | 31.4 µM (inactive) | > 100 µM (inactive) | 29.9 µM (inactive) | > 100 µM (inactive) | 41.3 µM (inactive) | 96.6 µM (inactive) | 80.7 µM (inactive) | 13.7 µM (inactive) | – | 13.2 µM (inactive) | 79.4 µM (inactive) |
| Cc1ccc(/N=C2\OP(=O)(Nc3ccc(C)cc3)Oc3ccccc32)cc1 (configuration not stated) | > 100 µM (inactive) | > 100 µM (inactive) | > 100 µM (inactive) | 50.6 µM (inactive) | > 100 µM (inactive) | > 100 µM (inactive) | > 100 µM (inactive) | > 100 µM (inactive) | > 100 µM (inactive) | > 100 µM (inactive) | > 100 µM (inactive) | > 100 µM (inactive) | > 100 µM (inactive) | > 100 µM (inactive) | > 100 µM (inactive) | > 100 µM (inactive) | > 100 µM (inactive) | > 100 µM (inactive) | 97.7 µM (inactive) |
| O=C(Nc1nn(C(=O)c2cccnc2)c(=O)s1)c1ccc(Cl)cc1 | 85.9 µM (inactive) | 50.6 µM (inactive) | > 100 µM (inactive) | 47.5 µM (inactive) | 61.7 µM (inactive) | > 100 µM (inactive) | 28.1 µM (inactive) | > 100 µM (inactive) | > 100 µM (inactive) | 43.1 µM (inactive) | 84.7 µM (inactive) | > 100 µM (inactive) | 61.1 µM (inactive) | 46.3 µM (inactive) | 29.4 µM (inactive) | > 100 µM (inactive) | 74 µM (inactive) | > 100 µM (inactive) | 1.8 µM (inactive) |
| Cc1nc(C)c(N2CCN(C(=O)NC(CCC(=O)O)C(=O)O)CC2)c(O)n1 (configuration not stated) | > 100 µM (inactive) | > 100 µM (inactive) | > 100 µM (inactive) | > 100 µM (inactive) | > 100 µM (inactive) | > 100 µM (inactive) | > 100 µM (inactive) | > 100 µM (inactive) | > 100 µM (inactive) | > 100 µM (inactive) | > 100 µM (inactive) | > 100 µM (inactive) | > 100 µM (inactive) | > 100 µM (inactive) | > 100 µM (inactive) | > 100 µM (inactive) | > 100 µM (inactive) | > 100 µM (inactive) | > 100 µM (inactive) |
| C/C(=N/NC(=S)N1CCN(C(=S)N/N=C(/C)c2ccccn2)CC1)c1ccccn1 | 5.86 µM (inactive) | 15.6 µM (inactive) | 7.33 µM (inactive) | 16.3 µM (inactive) | 16.5 µM (inactive) | 28 µM (inactive) | 4.79 µM (inactive) | 10.1 µM (inactive) | 2.99 µM (inactive) | 3.01 µM (inactive) | 8.2 µM (inactive) | > 66.8 µM (inactive) | 14.3 µM (inactive) | 6.25 µM (inactive) | 6.4 µM (inactive) | 11.7 µM (inactive) | 8.89 µM (inactive) | 6.71 µM (inactive) | 2.69 µM (inactive) |
| N#CC1(O)CCCCCCCCCCC1 | > 100 µM (inactive) | > 100 µM (inactive) | > 100 µM (inactive) | > 100 µM (inactive) | > 100 µM (inactive) | > 100 µM (inactive) | > 100 µM (inactive) | > 100 µM (inactive) | > 100 µM (inactive) | > 100 µM (inactive) | > 100 µM (inactive) | > 100 µM (inactive) | > 100 µM (inactive) | > 100 µM (inactive) | > 100 µM (inactive) | > 100 µM (inactive) | > 100 µM (inactive) | > 100 µM (inactive) | > 100 µM (inactive) |
| SC[C@@H]1COC[C@H](CS)S1 | > 100 µM (inactive) | > 100 µM (inactive) | > 100 µM (inactive) | > 100 µM (inactive) | > 100 µM (inactive) | > 100 µM (inactive) | > 100 µM (inactive) | > 100 µM (inactive) | > 100 µM (inactive) | > 100 µM (inactive) | > 100 µM (inactive) | > 100 µM (inactive) | > 100 µM (inactive) | > 100 µM (inactive) | > 100 µM (inactive) | > 100 µM (inactive) | > 100 µM (inactive) | > 100 µM (inactive) | > 100 µM (inactive) |
| CC(=O)OCC1OC(n2c(C#N)cc(=O)[nH]c2=O)CC1OC(C)=O (configuration not stated) | > 100 µM (inactive) | > 100 µM (inactive) | > 100 µM (inactive) | > 100 µM (inactive) | > 100 µM (inactive) | > 100 µM (inactive) | > 100 µM (inactive) | > 100 µM (inactive) | > 100 µM (inactive) | > 100 µM (inactive) | > 100 µM (inactive) | > 100 µM (inactive) | > 100 µM (inactive) | > 100 µM (inactive) | > 100 µM (inactive) | > 100 µM (inactive) | > 100 µM (inactive) | > 100 µM (inactive) | > 100 µM (inactive) |
| O=C(C(=O)n1ccc2ccccc21)c1c[nH]c2ccccc12 | > 10 µM (inactive) | > 10 µM (inactive) | > 10 µM (inactive) | > 10 µM (inactive) | > 10 µM (inactive) | > 10 µM (inactive) | > 10 µM (inactive) | > 10 µM (inactive) | > 10 µM (inactive) | > 10 µM (inactive) | > 10 µM (inactive) | > 10 µM (inactive) | > 10 µM (inactive) | > 10 µM (inactive) | > 10 µM (inactive) | > 10 µM (inactive) | > 10 µM (inactive) | > 10 µM (inactive) | > 10 µM (inactive) |
| CN(C)/C=N/c1ccc2nonc2c1 | > 100 µM (inactive) | > 100 µM (inactive) | > 100 µM (inactive) | > 100 µM (inactive) | > 100 µM (inactive) | > 100 µM (inactive) | > 100 µM (inactive) | > 100 µM (inactive) | > 100 µM (inactive) | > 100 µM (inactive) | > 100 µM (inactive) | > 100 µM (inactive) | > 100 µM (inactive) | > 100 µM (inactive) | > 100 µM (inactive) | > 100 µM (inactive) | – | > 100 µM (inactive) | > 100 µM (inactive) |
| O=C(c1cc(Cl)cc(Cl)c1)N(C(=O)N1CCN(c2ccccc2)CC1)c1ccccc1 | 80.9 µM (inactive) | 20.7 µM (inactive) | 25.6 µM (inactive) | 10.5 µM (inactive) | 23.5 µM (inactive) | 11.1 µM (inactive) | 20.1 µM (inactive) | 41.1 µM (inactive) | 29.7 µM (inactive) | 66.1 µM (inactive) | 23 µM (inactive) | 22.3 µM (inactive) | 25.1 µM (inactive) | 37.2 µM (inactive) | 41 µM (inactive) | 53.3 µM (inactive) | 39.7 µM (inactive) | 24.9 µM (inactive) | 18.7 µM (inactive) |
| COC(=O)c1cc(NC(=O)c2cc(NC(=O)Cc3c[nH]c4ccccc34)cn2C)cn1C | > 100 µM (inactive) | 22.2 µM (inactive) | 22.2 µM (inactive) | 44.4 µM (inactive) | 24.3 µM (inactive) | 30.3 µM (inactive) | 30.7 µM (inactive) | 24.3 µM (inactive) | 30.5 µM (inactive) | 41.9 µM (inactive) | 43.1 µM (inactive) | 39.3 µM (inactive) | 19.1 µM (inactive) | 36.3 µM (inactive) | 56.4 µM (inactive) | 21.8 µM (inactive) | – | 20.2 µM (inactive) | 23.5 µM (inactive) |
